Test results as given in US20250057819A1, “DRUG COMBINATIONS FOR INHIBITING CORONAVIRUS REPLICATION” (priority 2021, published 2025).
Structures can show the parent of a compound that is named as a salt. Where two headings read alike, the source gives them in different places.

Columns and labels:
[1] = Cell viability assay (MTT) in HRT-18 cells; settings: human, CC50 (μM)
rHCoVs-OC43 = test: microbe, parasite or virus in culture; assay type: cell-based
HRT-18 cells = test: Cell viability assay (MTT) in HRT-18 cells
SARS-CoV-2 = test: microbe, parasite or virus in culture; assay type: cell-based; settings: Severe acute respiratory syndrome coronavirus 2, Huh7.5, 48 h; read-out: SARS-CoV-2 EC50
[2] = Cell viability assay (MTT) in Huh7.5 cells; assay type: cell-based, human; settings: human, Huh7.5 cells, Huh7.5 (B), read-out: SARS-CoV-2 CC50
Experimental: Cell viability was monitored by a mitochondrial activity test using methyl-thiazolyl-tetrazolium (MTT, Sigma). After 48 hours of drug treatment, cells were treated with 1 mg/ml of MTT during 3 hours at 37° C. The supernatants were removed and the MTT crystals were dissolved using DMSO and a shaker. The absorbance was read with a Tecan Spark at 570 nm with reference at 650 nm.
Only the most promising molecules or those studied in synergy were tested in Calu3 cells.

[3] = drug 2 alone (fast synergy screening table)
[4] = drug alone, HRT-18 cells, 48 h treatment, MTT
[5] = 48 h, drug 2 alone (fast synergy screening table), read-out: IC50
[6] = drug 2 alone (fast synergy screening table), read-out: IC50
[7] = drug alone, HRT-18 cells, MOI 0.025, 48 h treatment, decrease of Rluc, read-out: EC50

Row | Compound | CC50 at 48 h [1, 3] [µM] | CC50 at 48 h [1, 4] [µM] | EC50 (rHCoVs-OC43; [7]) [µM] | further results
1 | C=C1/C(=C\C=C2/CCC[C@]3(C)[C@@H]([C@H](C)CCCC(C)C)CC[C@@H]23)C[C@@H](O)C[C@@H]1O [Alfacalcidol] | > 10 | > 10 | 1.7 | IC50 (rHCoVs-OC43; [5]): 1700 nM; IC50 (rHCoVs-OC43; [6]): 1700 nM
2 | CCOC(=O)C1=C(COCCN)NC(C)=C(C(=O)OC)C1c1ccccc1Cl (stereo not drawn) [Amlodipine benzenesulphonate] | > 10 | > 10 | 5.2 | IC50 (rHCoVs-OC43; [5]): 5200 nM; IC50 (rHCoVs-OC43; [6]): 5200 nM
3 | CCN(CC)Cc1cc(Nc2ccnc3cc(Cl)ccc23)ccc1O [Amodiaquine] | > 10 | > 10 | 1.2 | IC50 (rHCoVs-OC43; [5]): 1200 nM; IC50 (rHCoVs-OC43; [6]): 1200 nM
4 | CCN(CC)CCCC(C)Nc1ccnc2cc(Cl)ccc12 (stereo not drawn) [Chloroquine] | – | – | 0.066 | IC50 (rHCoVs-OC43; [5]): 66 nM
5 | CN(C)CC/C=C1/c2ccccc2Sc2ccc(Cl)cc21 [Chlorprothixene] | – | > 10 | 7.5 | –
6 | CCCC(=O)O[C@]1(C(=O)CCl)[C@H](C)C[C@@H]2[C@@H]3CCC4=CC(=O)C=C[C@]4(C)[C@]3(F)C(=O)C[C@@]21C [Clobetasone butyrate] | – | – | 8.5 | CC50 (HRT-18 cells; [4]): > 10000 nM
7 | CC(C)/N=c1\cc2n(-c3ccc(Cl)cc3)c3ccccc3nc-2cc1Nc1ccc(Cl)cc1 [Clofazimine] | > 10 | > 10 | 1.8 | IC50 (rHCoVs-OC43; [5]): 1800 nM; IC50 (rHCoVs-OC43; [6]): 1800 nM
8 | CCN(CC)CCOc1ccc(C(=C(Cl)c2ccccc2)c2ccccc2)cc1 [Clomiphene citrate] | > 10 | > 10 | – | –
9 | CN(C)CCCN1c2ccccc2CCc2ccc(Cl)cc21 [Clomipramine hydrochloride] | – | > 10 | – | –
10 | C#C[C@]1(O)CC[C@H]2[C@@H]3CCC4=Cc5oncc5C[C@]4(C)[C@H]3CC[C@@]21C [Danazol] | > 10 | > 10 | 1 | EC50 (SARS-CoV-2): 830 nM; IC50 (rHCoVs-OC43; [5]): 1000 nM; IC50 (rHCoVs-OC43; [6]): 1000 nM; CC50 at 48 h [2]: > 10 µM
11 | CN(C)[C@@H](CCOc1cccc2ccccc12)c1ccccc1 [Dapoxetine hydrochloride] | – | > 10 | 4.7 | –
12 | C[C@H]1O[C@@H](O[C@H]2[C@@H](O)C[C@H](O[C@H]3[C@@H](O)C[C@H](O[C@H]4CC[C@@]5(C)[C@H](CC[C@@H]6[C@@H]5CC[C@]5(C)[C@@H](C7=CC(=O)OC7)CC[C@]65O)C4)O[C@@H]3C)O[C@@H]2C)C[C@H](O)[C@@H]1O [Digitoxin] | 0.08 | 0.08 | 0.021 | IC50 (rHCoVs-OC43; [5]): 21 nM
13 | C[C@H]1O[C@@H](O[C@H]2[C@@H](O)C[C@H](O[C@H]3[C@@H](O)C[C@H](O[C@H]4CC[C@@]5(C)[C@H](CC[C@@H]6[C@@H]5C[C@@H](O)[C@]5(C)[C@@H](C7=CC(=O)OC7)CC[C@]65O)C4)O[C@@H]3C)O[C@@H]2C)C[C@H](O)[C@@H]1O [Digoxin] | – | – | 0.028 | IC50 (rHCoVs-OC43; 48 h): 28 nM
14 | OCCN(CCO)c1nc(N2CCCCC2)c2nc(N(CCO)CCO)nc(N3CCCCC3)c2n1 [Dipyridamole] | – | > 10 | 4.1 | –
15 | CCN(CC)C(=S)SSC(=S)N(CC)CC [Disulfiram] | – | 0.23 | 0.18 | –
16 | COc1cc2nc(N3CCN(C(=O)C4COc5ccccc5O4)CC3)nc(N)c2cc1OC (stereo not drawn) [Doxazosin mesylate] | – | > 10 | 3.2 | –
17 | CNCC[C@H](Oc1cccc2ccccc12)c1cccs1 [Duloxetine hydrochloride] | – | > 10 | – | EC50 (rHCoVs-OC43; HRT-18, 48 h): 4.8 µM
18 | Cn1cc(C2=C(c3cn(C4CCN(Cc5ccccn5)CC4)c4ccccc34)C(=O)NC2=O)c2ccccc21 [Enzastaurin hydrochloride] | – | > 10 | 2.8 | –
19 | CCCCCCCCc1ccc(CCC(N)(CO)CO)cc1 [Fingolimod hydrochloride] | > 10 | 10 | 3.9 | IC50 (rHCoVs-OC43; [5]): 3900 nM; IC50 (rHCoVs-OC43; [6]): 3900 nM
20 | CCCCCCCCCC(=O)OC1(c2ccc(Cl)cc2)CCN(CCCC(=O)c2ccc(F)cc2)CC1 [Haloperidol decanoate] | – | > 10 | > 10 | –
21 | Oc1c(Cl)cc(Cl)c(Cl)c1Cc1c(O)c(Cl)cc(Cl)c1Cl [Hexachlorophene] | – | – | 0.39 | IC50 (rHCoVs-OC43; [5]): 390 nM

Row | Compound | CC50 at 48 h [1, 3] [µM] | CC50 at 48 h [1, 4] [µM] | EC50 (rHCoVs-OC43; [7]) [µM] | further results
22 | COC(=O)C1=C(C)NC(C)=C(C(=O)OCCN2CCN(C(c3ccccc3)c3ccccc3)CC2)C1c1cccc([N+](=O)[O-])c1 (stereo not drawn) [Manidipine dihydrochloride] | > 10 | > 10 | 4.5 | IC50 (rHCoVs-OC43; [5]): 4500 nM; IC50 (rHCoVs-OC43; [6]): 4500 nM
23 | COC(=O)C1=C(C)NC(C)=C(C(=O)OCC(C)C)C1c1ccccc1[N+](=O)[O-] (stereo not drawn) [Nisoldipine] | – | > 10 | 2.35 | –
24 | CCCCCCCCCCC[C@@H](C[C@@H]1OC(=O)[C@H]1CCCCCC)OC(=O)[C@H](CC(C)C)NC=O [Orlistat] | – | > 10 | 7.3 | –
25 | C[C@@H]1O[C@@H](O[C@H]2C[C@@H](O)[C@]3(CO)[C@H]4[C@H](O)C[C@]5(C)[C@@H](C6=CC(=O)OC6)CC[C@]5(O)[C@@H]4CC[C@]3(O)C2)[C@H](O)[C@H](O)[C@H]1O [Ouabain] | 0.028 | 0.028 | 0.016 | IC50 (rHCoVs-OC43; [5]): 16 nM
26 | CC(C)COc1ccc(CNC(=O)N(Cc2ccc(F)cc2)C2CCN(C)CC2)cc1 [Pimanavserin] | – | – | 6 | CC50 (HRT-18 cells; [4]): > 10000 nM
27 | O=C(Nc1ccc(Oc2ccc(Cl)cc2)c(Cl)c1)c1cc(I)cc(I)c1O [Rafoxanide] | – | > 10 | 6.9 | –
28 | NC(=O)c1ncn([C@@H]2O[C@H](CO)[C@@H](O)[C@H]2O)n1 [Ribavirin] | > 10 | > 10 | 1 | IC50 (rHCoVs-OC43): 1000 nM; IC50 (rHCoVs-OC43; 48 h): 1000 nM
29 | Cc1cc(/C=C/C#N)cc(C)c1Nc1ccnc(Nc2ccc(C#N)cc2)n1 [Rilpivirine] | – | 10 | > 10 | –
30 | Cc1nc2n(c(=O)c1CCN1CCC(c3noc4cc(F)ccc34)CC1)CCCC2 [Risperidone] | – | > 10 | – | –
31 | CN[C@H]1CC[C@@H](c2ccc(Cl)c(Cl)c2)c2ccccc21 [Sertraline hydrochloride] | > 10 | > 10 | – | –
32 | C=CC[C@@H]1/C=C(\C)C[C@H](C)C[C@H](OC)[C@H]2O[C@@](O)(C(=O)C(=O)N3CCCC[C@H]3C(=O)O[C@H](/C(C)=C/[C@@H]3CC[C@@H](O)[C@H](OC)C3)[C@H](C)[C@@H](O)CC1=O)[C@H](C)C[C@@H]2OC [Tacrolimus hydrate] | – | > 10 | 3.3 | –
33 | CC/C(=C(\c1ccccc1)c1ccc(OCCN(C)C)cc1)c1ccccc1 [Tamoxifen] | – | > 10 | – | –
34 | CSc1ccc2c(c1)N(CCC1CCCCN1C)c1ccccc1S2 (stereo not drawn) [Thioridazine hydrochloride] | > 10 | > 10 | – | –
35 | Clc1ccc(C(Cn2ccnc2)OCc2ccsc2Cl)c(Cl)c1 (stereo not drawn) [Tioconazole] | – | > 10 | – | EC50 (rHCoVs-OC43; HRT-18, 48 h): 4.1 µM
36 | CN(C)CCOc1ccc(/C(=C(/CCCl)c2ccccc2)c2ccccc2)cc1 [Toremifene Citrate] | > 10 | > 10 | 2.6 | IC50 (rHCoVs-OC43; 48 h): 2600 nM
37 | Cc1ccc(Sc2ccccc2N2CCNCC2)c(C)c1 [Vortioxetine hydrobromide] | – | > 10 | 2.4 | –
38 | Cc1ccc(Sc2ccccc2N2CCNCC2)c(C)c1 [Vortioxetine] | > 10 | – | – | IC50 (rHCoVs-OC43; [5]): 2400 nM; IC50 (rHCoVs-OC43; [6]): 2400 nM
39 | CN(C)CCCN1c2ccccc2Sc2ccc(Cl)cc21 [chlorpromazine] | – | > 10 | 5.1 | –
40 | Benproperine phosphate | – | – | 5.6 | CC50 (HRT-18 cells; [4]): > 10000 nM
41 | Monesin sodium sulfate | – | – | 0.029 | CC50 (HRT-18 cells; [3]): 900 nM; CC50 (HRT-18 cells; [4]): 900 nM; IC50 (rHCoVs-OC43; [6]): 29 nM
